According to patent US20260028326A1, “COMPOUND BASED ON ISOINDOLINE-SUBSTITUTED GLUTARIMIDE BACKBONE AND USE THEREOF” (GLUETACS THERAPEUTICS (SHANGHAI) CO., LTD., priority 2022, published 2026):

The compounds below were run against human Cereblon WT GST-tagged protein (Homo sapiens (Human), UniProt Q96SW2) (assay: CRBN-binding affinity, HTRF (CEREBLON BINDING kit)).
Sequence of human Cereblon WT GST-tagged protein (Q96SW2 whole entry): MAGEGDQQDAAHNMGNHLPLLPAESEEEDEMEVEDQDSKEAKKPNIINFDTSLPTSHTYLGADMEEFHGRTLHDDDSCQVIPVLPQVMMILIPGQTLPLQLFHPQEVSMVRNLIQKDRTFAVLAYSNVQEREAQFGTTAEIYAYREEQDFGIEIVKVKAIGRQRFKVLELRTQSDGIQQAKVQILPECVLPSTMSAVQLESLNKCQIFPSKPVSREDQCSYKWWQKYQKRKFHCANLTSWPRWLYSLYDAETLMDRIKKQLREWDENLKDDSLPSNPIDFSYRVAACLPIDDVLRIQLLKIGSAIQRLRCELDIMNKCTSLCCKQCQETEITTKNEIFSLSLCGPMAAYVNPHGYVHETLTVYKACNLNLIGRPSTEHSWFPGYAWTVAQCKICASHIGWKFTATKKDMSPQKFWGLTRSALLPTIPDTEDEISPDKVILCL
Experimental: The CEREBLON BINDING kits (specification: 10,000 tests; product number: Catalog #64BDCRBNPEH; CISBIO company) was used to determine the CRBN binding ability of the compounds to be tested through a HTRF method (homogeneous time-resolved fluorescence). The specific methods are as follows: • 1. […] Then, 2.5 μL of human Cereblon WT GST-tagged protein solution was added to each well. Finally, 5 μL of the thoroughly mixed Thalidomide-Re reagent and GST Eu antibody working solution were added to each of the aforementioned wells. […] The blank control wells were sequentially added with 2.5 μL of diluent #9 (1×) solution, 2.5 μL of PROTAC binding buffer, and 5 μL of thoroughly mixed Thalidomide-Re reagent and GST Eu antibody working solution. • 4.
The corresponding CRBN binding inhibition rate was calculated using the following method: […]
Work on `O=C1CCC(N2Cc3cc(CN4CCN(Cc5ccccc5-c5ccc(Cl)cc5)CC4)cc(F)c3C2=O)C(=O)N1` (stereo not shown) [GT-03696, 3-(5-((4-((4′-chloro-[1,1′-biphenyl]-2-yl)methyl)piperazin-1-yl)methyl)-7-fluoro-1-oxoisoindolin-2-yl)piperidine-2,6-dione] yielded an IC50 of 880 nM. `O=C1CCC(N2Cc3cc(C(=O)N4CC5(CN(Cc6ccccc6-c6ccc(Cl)cc6)C5)C4)ccc3C2=O)C(=O)N1` (stereo not shown) [GT-05637, 3-(5-(6-((4′-chloro-[1,1′-biphenyl]-2-yl)methyl)-2,6-diazaspiro[3.3]heptane-2-carbonyl)-1-oxoisoindolin-2-yl)piperidine-2,6-dione] was tested, and the IC50 was 1070 nM. `CC1(C)CCC(CN2CCN(Cc3cccc4c3CN(C3CCC(=O)NC3=O)C4=O)CC2)=C(c2ccc(F)cc2)C1` (stereo not shown) [GT-05393, 3-(4-((4-((4′-fluoro-5,5-dimethyl-3,4,5,6-tetrahydro-[1,1′-biphenyl]-2-yl)methyl)piperazin-1-yl)methyl)-1-oxoisoindolin-2-yl)piperidine-2,6-dione] showed an IC50 of 340 nM. `CC1(C)CCC(CN2CC(O)(C(O)c3ccc4c(c3)CN(C3CCC(=O)NC3=O)C4=O)C2)=C(c2ccc(F)cc2)C1` (stereo not shown) [GT-05499, 3-(5-((1-((4′-fluoro-5,5-dimethyl-3,4,5,6-tetrahydro-[1,1′-biphenyl]-2-yl)methyl)-3-hydroxyazetidin-3-yl)(hydroxy)methyl)-1-oxoisoindolin-2-yl)piperidine-2,6-dione] gave an IC50 of 670 nM. For `CC1(C)CCC(CN2CC3CC(C2)N3Cc2cc3c(cc2F)C(=O)N(C2CCC(=O)NC2=O)C3)=C(c2ccc(Cl)cc2)C1` (stereo not shown) [GT-05367, 3-(5-((3-((4′-chloro-5,5-dimethyl-3,4,5,6-tetrahydro-[1,1′-biphenyl]-2-yl)methyl)-3,6-diazabicyclo[3.1.1]heptan-6-yl)methyl)-6-fluoro-1-oxoisoindolin-2-yl)piperidine-2,6-dione], the IC50 was 400 nM. `O=C1CCC(N2Cc3cc(CN4CC5CC(C4)N5Cc4ccccc4-c4ccc(Cl)cc4)ccc3C2=O)C(=O)N1` (stereo not shown) [GT-05704, 3-(5-((6-((4′-chloro-[1,1′-biphenyl]-2-yl)methyl)-3,6-diazabicyclo[3.1.1]heptan-3-yl)methyl)-1-oxoisoindolin-2-yl)piperidine-2,6-dione] gave an IC50 of 680 nM. For `CC1(C)CCC(C(=O)N2CC3CCC(C2)N3Cc2ccc3c(c2)CN(C2CCC(=O)NC2=O)C3=O)=C(c2ccc(Cl)cc2)C1` (stereo not shown) [GT-05522, 3-(5-((3-(4′-chloro-5,5-dimethyl-3,4,5,6-tetrahydro-[1,1′-biphenyl]-2-carbonyl)-3,8-diazabicyclo[3.2.1]octan-8-yl)methyl)-1-oxoisoindolin-2-yl)piperidine-2,6-dione], the IC50 was 480 nM. For `CC1(C)CCC(CN2CCC3(CC2)CN(C(=O)c2ccc4c(c2)CN(C2CCC(=O)NC2=O)C4=O)C3)=C(c2ccc(F)cc2)C1` (stereo not shown) [GT-05507, 3-(5-(7-((4′-fluoro-5,5-dimethyl-3,4,5,6-tetrahydro-[1,1′-biphenyl]-2-yl)methyl)-2,7-diazaspiro[3.5]nonane-2-carbonyl)-1-oxoisoindolin-2-yl)piperidine-2,6-dione], the IC50 was 1240 nM. `O=C1CCC(N2Cc3c(CN4C5CC4CN(C(=O)C4=C(c6ccc(F)cc6)CCCC4)C5)cccc3C2=O)C(=O)N1` (stereo not shown) [GT-05478, 3-(4-((3-(4′-fluoro-3,4,5,6-tetrahydro-[1,1′-biphenyl]-2-carbonyl)-3,6-diazabicyclo[3.1.1]heptan-6-yl)methyl)-1-oxoisoindolin-2-yl)piperidine-2,6-dione] gave an IC50 of 1120 nM. Work on `CC1(C)CCC(C(=O)N2C3CCC2CN(Cc2ccc4c(c2)CN(C2CCC(=O)NC2=O)C4=O)C3)=C(c2ccc(F)cc2)C1` (stereo not shown) [GT-05517, 3-(5-((8-(4′-fluoro-5,5-dimethyl-3,4,5,6-tetrahydro-[1,1′-biphenyl]-2-carbonyl)-3,8-diazabicyclo[3.2.1]octan-3-yl)methyl)-1-oxoisoindolin-2-yl)piperidine-2,6-dione] yielded an IC50 of 600 nM. Work on `O=C1CCC(N2Cc3cc(CN4C5CC4CN(C(=O)C4=C(c6ccc(F)cc6)CCCC4)C5)cc(F)c3C2=O)C(=O)N1` (stereo not shown) [GT-05477, 3-(7-fluoro-5-((3-(4′-fluoro-3,4,5,6-tetrahydro-[1,1′-biphenyl]-2-carbonyl)-3,6-diazabicyclo[3.1.1]heptan-6-yl)methyl)-1-oxoisoindolin-2-yl)piperidine-2,6-dione] yielded an IC50 of 660 nM. With `CC1(C)CCC(CN2CCN(Cc3ccc4c(c3)C(=O)N(C3CCC(=O)NC3=O)C4)CC2)=C(c2ccc(F)cc2)C1` (stereo not shown) [GT-05394, 3-(6-((4-((4′-fluoro-5,5-dimethyl-3,4,5,6-tetrahydro-[1,1′-biphenyl]-2-yl)methyl)piperazin-1-yl)methyl)-1-oxoisoindolin-2-yl)piperidine-2,6-dione] the IC50 was 490 nM. Work on `O=C1CCC(N2Cc3cc(CN4CCN(C(=O)c5ccccc5-c5ccc(Cl)cc5)CC4)cc(F)c3C2=O)C(=O)N1` (stereo not shown) [GT-05700, 3-(5-((4-(4′-chloro-[1,1′-biphenyl]-2-carbonyl)piperazin-1-yl)methyl)-7-fluoro-1-oxoisoindolin-2-yl)piperidine-2,6-dione] yielded an IC50 of 1220 nM. For `O=C1CCC(N2Cc3cc(CCN4CCN(Cc5ccccc5-c5ccc(Cl)cc5)CC4)ccc3C2=O)C(=O)N1` (stereo not shown) [GT-05876, 3-(5-(2-(4-((4′-chloro-[1,1′-biphenyl]-2-yl)methyl)piperazin-1-yl)ethyl)-1-oxoisoindolin-2-yl)piperidine-2,6-dione], the IC50 was 120 nM. For `O=C1CCC(N2Cc3cc(CN4CC5(C4)CN(C(=O)c4ccccc4-c4ccc(Cl)cc4)C5)ccc3C2=O)C(=O)N1` (stereo not shown) [GT-05708, 3-(5-((6-(4′-chloro-[1,1′-biphenyl]-2-carbonyl)-2,6-diazaspiro[3.3]heptan-2-yl)methyl)-1-oxoisoindolin-2-yl)piperidine-2,6-dione], the IC50 was 550 nM. `CC1(C)CCC(CN2CCN(C(=O)c3ccc4c(c3)C(=O)N(C3CCC(=O)NC3=O)C4=O)CC2)=C(c2ccc(Cl)cc2)C1` (stereo not shown) [GT-05366, 5-(4-((4′-chloro-5,5-dimethyl-3,4,5,6-tetrahydro-[1,1′-biphenyl]-2-yl)methyl)piperazine-1-carbonyl)-2-(2,6-dioxopiperidin-3-yl)isoindoline-1,3-dione] was tested, and the IC50 was 1440 nM. With `O=C1CCC(N2Cc3c(CN4CCC(Nc5ccccc5-c5ccc(Cl)cc5)CC4)cccc3C2=O)C(=O)N1` (stereo not shown) [GT-04947, 3-(4-((4-((4′-chloro-[1,1′-biphenyl]-2-yl)amino)piperidin-1-yl)methyl)-1-oxoisoindolin-2-yl)piperidine-2,6-dione] the IC50 was 390 nM. Compound `O=C1CCC(N2Cc3cc(CN4CCCN(Cc5ccccc5-c5ccc(Cl)cc5)CC4)ccc3C2=O)C(=O)N1` (stereo not shown) [GT-05611, 3-(5-((4-((4′-chloro-[1,1′-biphenyl]-2-yl)methyl)-1,4-diazepan-1-yl)methyl)-1-oxoisoindolin-2-yl)piperidine-2,6-dione] has an IC50 of 630 nM. In the case of `CC1(C)CCC(CN2CC3CCC2CN3C(=O)c2ccc3c(c2)CN(C2CCC(=O)NC2=O)C3=O)=C(c2ccc(Cl)cc2)C1` (stereo not shown) [GT-05795, 3-(5-(5-((4′-chloro-5,5-dimethyl-3,4,5,6-tetrahydro-[1,1′-biphenyl]-2-yl)methyl)-2,5-diazabicyclo[2.2.2]octane-2-carbonyl)-1-oxoisoindolin-2-yl)piperidine-2,6-dione], the IC50 is reported as 940 nM.
